Assays:
[1] = target: T1, WEE1 (Homo sapiens, UniProt P30291+Q96SW2); experiment: WEE1-ePL degradation assay (LentiX-WEE1-ePL-GSPT1-ND cells, InCELL Hunter luminescence, 4 h); format: cell-based; conditions: 293T-LentiX WEE1-ePL cells; for 293T-LentiX WEE1-ePL Degradation 4 hr (Ymin): lower limit of the fit (0 = luciferase inhibitor, Ymax = DMSO control); for DC50: read-out: 293T-LentiX WEE1-ePL Degradation 4 hr (EC50)
T1 construct: C-terminal ePL-tagged (DiscoverX, Fremont, CA) full-length WEE1 expression construct; expressed in transfected cells; host or cells: LentiX-HEK293T (Invitrogen), lentiviral transduction; co-expressing GSPT1-GN (G576N, lacking the first 158 amino acids)
How it was run: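 First, compounds were pre-plated as 10-point, 3-fold dilutions (top 1 uM or 10 uM) with DMSO control; next, WEE1-ePL-expressing HEK293T cells were added and held 4 h at 37 °C; finally, InCELL Hunter reagent was applied for 30 min before luminescence reading. A 4PL fit gave EC50 and Ymin.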

[2] = system: MKN45 cells; experiment: MKN45 cell proliferation assay (Cell-Titer-Glo, 120 h); format: cell-based; conditions: for EC50: Homo sapiens, MKN-45, 120 h, Cell-Titer-Glo, growth inhibition, read-out: MKN45 Cell Prolif. 120 hr (EC50); for MKN45 Cell Prolif. 120 hr (Ymin-Obs): minimal percent of DMSO control observed in the concentrations tested
How it was run: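 Growth inhibition was read as blank-corrected Cell-Titer-Glo luminescence expressed as percent DMSO control after 120 h at 37 C, 400 cells/well. Compounds tested in triplicate as 10-point half-log series from 1 or 10 uM, 0.1% DMSO; four-parameter fit gave EC50, and lowest observed percent control was reported as Ymin-obs.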

Row | SMILES | 293T-LentiX WEE1-ePL Degradation 4 hr (Ymin) [1] | DC50 [1] [nM] | EC50 [2] [nM] | MKN45 Cell Prolif. 120 hr (Ymin-Obs) [2]
1 | O=C1CCC(N2Cc3cc(O[C@H]4CCN(Cc5ccc6nc(C78CCOCC7C8)ccc6c5)C4)ccc3C2=O)C(=O)N1 (stereo partly drawn) [3-(5-{[(3S)-1-[(2-{3-oxabicyclo[4.1.0]heptan-6-yl}quinolin-6-yl)methyl]pyrrolidin-3-yl]oxy}-1-oxo-2,3-dihydro-1H-isoindol-2-yl)piperidine-2,6-dione] | 33.33 | 3.1 | 2.16 | 9.735
2 | O=C1CCC(N2Cc3cc(O[C@H]4CCN(Cc5ccc6nc(N7CCC78CCOCC8)ccc6c5)C4)ccc3C2=O)C(=O)N1 (stereo partly drawn) [3-(5-{[(3S)-1-[(2-{7-oxa-1-azaspiro[3.5]nonan-1-yl}quinolin-6-yl)methyl]pyrrolidin-3-yl]oxy}-1-oxo-2,3-dihydro-1H-isoindol-2-yl)piperidine-2,6-dione] | 33 | 6.05 | 3.7 | 7.36
3 | O=C1CCC(N2Cc3cc(O[C@H]4CCN(Cc5ccc6nc(N7CC8(CCOCC8)C7)ncc6c5)C4)ccc3C2=O)C(=O)N1 (stereo partly drawn) [3-(5-{[(3S)-1-[(2-{7-oxa-2-azaspiro[3.5]nonan-2-yl}quinazolin-6-yl)methyl]pyrrolidin-3-yl]oxy}-1-oxo-2,3-dihydro-1H-isoindol-2-yl)piperidine-2,6-dione] | 35 | 16.6 | 10.2 | 9.958
4 | O=C1CCC(N2Cc3cc(O[C@H]4CCN(Cc5ccc6nc(N7CC8(CCOCC8)C7)ccc6c5)C4)ccc3C2=O)C(=O)N1 (stereo partly drawn) [3-(5-{[(3S)-1-[(2-{7-oxa-2-azaspiro[3.5]nonan-2-yl}quinolin-6-yl)methyl]pyrrolidin-3-yl]oxy}-1-oxo-2,3-dihydro-1H-isoindol-2-yl)piperidine-2,6-dione] | 36 | 1.94 | 2.84 | 10.13

Now from value to compound, other results behind:

Row | 293T-LentiX WEE1-ePL Degradation 4 hr (Ymin) [1] | DC50 [1] [nM] | EC50 [2] [nM] | SMILES | MKN45 Cell Prolif. 120 hr (Ymin-Obs) [2]
5 | 37 | 8.5 | 14.2 | O=C1CCC(N2Cc3cc(O[C@H]4CCN(Cc5ccc6nc(N7CCC78COC8)ncc6c5)C4)ccc3C2=O)C(=O)N1 (stereo partly drawn) [3-(5-{[(3S)-1-[(2-{6-oxa-1-azaspiro[3.3]heptan-1-yl}quinazolin-6-yl)methyl]pyrrolidin-3-yl]oxy}-1-oxo-2,3-dihydro-1H-isoindol-2-yl)piperidine-2,6-dione] | 14.05
6 | 35 | 6.17 | 3.82 | O=C1CCC(N2Cc3cc(O[C@H]4CCN(Cc5ccc6nc(N7CCC78COC8)ccc6c5)C4)ccc3C2=O)C(=O)N1 (stereo partly drawn) [3-(5-{[(3S)-1-[(2-{6-oxa-1-azaspiro[3.3]heptan-1-yl}quinolin-6-yl)methyl]pyrrolidin-3-yl]oxy}-1-oxo-2,3-dihydro-1H-isoindol-2-yl)piperidine-2,6-dione] | 8.91
7 | 37 | 11.4 | 12.6 | O=C1CCC(N2Cc3cc(O[C@H]4CCN(Cc5ccc6nc(N7CCC78CCOCC8)ncc6c5)C4)ccc3C2=O)C(=O)N1 (stereo partly drawn) [3-(5-{[(3S)-1-[(2-{7-oxa-1-azaspiro[3.5]nonan-1-yl}quinazolin-6-yl)methyl]pyrrolidin-3-yl]oxy}-1-oxo-2,3-dihydro-1H-isoindol-2-yl)piperidine-2,6-dione] | 13.59
8 | 47 | 18.1 | 14.1 | O=C1CCC(N2Cc3cc(O[C@H]4CCN(Cc5ccc6nc(N7CCCC78CCOCC8)ncc6c5)C4)ccc3C2=O)C(=O)N1 (stereo partly drawn) [3-(5-{[(3S)-1-[(2-{8-oxa-1-azaspiro[4.5]decan-1-yl}quinazolin-6-yl)methyl]pyrrolidin-3-yl]oxy}-1-oxo-2,3-dihydro-1H-isoindol-2-yl)piperidine-2,6-dione] | 20.87

Source: US20240067632A1, “WEE1 Degrading Compounds and Uses Thereof” (Bristol-Myers Squibb Company, priority 2022, published 2024)
